Test results published in patent US10272056B2, “Treatment for mitochondrial diseases” (The George Washington University a Congressionally …, priority 2015, dated 2019).
Like-named read-outs stand apart in the source and are kept apart here.

Legend:
MELAS fibroblasts [1] = experiment: Apoptosis induced by hydroxamate HDACis; assay type: cell-based, human
MT-COI = experiment: Quantitative immunoblot of mitochondrial-encoded MT-COI; assay type: cell-based; conditions: lowest dose of chloramphenicol
From the text: (§1) FIG. 14A-14E are images from microscopy showing that pre-treatment of PC12-ND6 cells with NaBt prevents chloramphenicol-mediated decrease of mitochondrial mass. (A) Graph of PC12-ND6 cell death upon exposure to different concentrations of chloramphenicol (Cm). Percent of cell death±SEM (n=250 cells). (B) Quantitative immunoblot analysis of mitochondrial-encoded MT-CO1 protein (green) and nuclear-encoded SDH-A protein (red) in Cm-treated PC12-ND6 cells. (C) Graph of MT-CO1/SDH-A ratio normalized to untreated PC12-ND6 cells. Mean±SEM (n=3; compared to untreated cells *p=0.0052, **p=0.0048, and ***p=0.0034). (D) Confocal micrographs of untreated and Cm-treated PC12-ND6 cells transfected with the vector mito-GFP. Scale bar represents 5 μm. (E) Confocal micrographs of NaBt pre-treated PC12-ND6 cells transfected with the vector mito-GFP and exposed to Cm. Scale bar represents 5 μm.
(§2) The efficacy of chloramphenicol treatment was determined by simultaneously examining the expression levels of the nuclear-encoded succinate dehydrogenase (SDH-A) subunit of Complex II and the mitochondrial-encoded subunit I of Complex IV (MT-COI) using a quantitative immunoblot approach. […] The effect of chloramphenicol on mitochondrial mass by live-cell confocal microscopy using PC12-ND6 cells transfected with the vector mito-GFP was confirmed.

SDH-A = experiment: Quantitative immunoblot of nuclear-encoded SDH-A; assay type: cell-based; conditions: chloramphenicol 15-60 μM
From the text: as §1, §2

[2] = tested on: E17.5 hippocampal neurons; experiment: Neuronal stage 3 frequency with chloramphenicol and NaBt; assay type: cell-based; conditions: no NaBt
From the text: FIG. 16A-16I are images from microscopy and a graph showing that Pre-treatment of E17.5 hippocampal neurons with NaBt protects against chloramphenicol-induced loss of neuronal differentiation. (A-D) Confocal micrographs of E17.5 hippocampal neurons exposed to different concentrations of chloramphenicol at 2DIV and labeled with anti tubulin antibody (red) and nuclear counterstain DAPI (blue) at 3DIV. Scale bar represents 10 μm. (E-H) Confocal micrographs of E17.5 hippocampal neurons treated with NaBt (2 mM) at 1DIV prior to exposure to different concentrations of chloramphenicol at 2DIV and labeled with anti tubulin antibody (red) and nuclear counterstain DAPI (blue) at 3DIV. Scale bar represents 10 μm. (I) Graph of E17.5 β-III^+ hippocampal neurons at the neuronal stage 3. Mean±S.D. (n=250 cells; compared to untreated control *p=0.0001; compared to the corresponding non-NaBt treated sample **p=0.0001; compared to non-NaBt treated cells exposed to Cm at 30 μM‡p=0.007).
The consequences of chloramphenicol exposure on untreated or NaBt-treated E17.5 hippocampal neurons was examined. At 1DIV, dissociated E17.5 hippocampal neurons were switched to differentiation medium in the absence or presence of NaBt (2 mM) for 24 hours before being treated with increasing concentrations of chloramphenicol (0, 15, 30, and 60 μM) for 24 hours. At 3DIV, their phenotypic differentiation was examined by immunocytochemistry using an antibody against the pan-neuronal marker β-III tubulin and quantified the percent of neurons having reached the developmental stage 3 for each experimental condition. As expected, only half of untreated neurons reached stage 3 in the absence of NaBt, while more than 90% of NaBt-treated neurons achieved such degree of differentiation, thereby forming an elaborate neuritic network (FIGS. 16A, E, and I).

PC12-ND6 cells [3] = experiment: Cell death upon chloramphenicol exposure; assay type: cell-based; conditions: chloramphenicol 0, 15, 30, 60 μM, two days
From the text: as §1, §2

PC12-ND6 cells [4] = experiment: NGF (100 ng/ml)-mediated neurite outgrowth after chloramphenicol; assay type: cell-based; conditions: chloramphenicol lowest concentration two days, then NGF 100 ng/ml three days
From the text: FIG. 15A-15C are images from microscopy and a graph showing that Pre-treatment of PC12-ND6 cells negates the inhibitory effect of chloramphenicol on NGF-mediated neuronal differentiation. (A) Confocal micrographs of untreated and Cm-treated PC12-ND6 cells transfected with the vector mito-GFP and exposed to NGF. Scale bar represents 20 μm. (B) Confocal micrographs of NaBt pre-treated PC12-ND6 cells transfected with the vector mito-GFP and exposed to chloramphenicol prior to NGF treatment. Scale bar represents 20 μm. (C) Graph of average total neurite length. Mean±SEM (n=50 cells; compared to untreated PC12-ND6 cells *p=0.0001; compared to non-NaBt-treated PC12-ND6 cells with corresponding Cm concentration **p=0.0001).
Based on the results that NaBt endows PC12-ND6 cells with increased mitochondrial mass through biogenesis, resulting in accelerated neuronal differentiation, it was examined whether exposure to NaBt for three days could confer protection to chloramphenicol-mediated inhibition of neuronal differentiation upon NGF signaling.

PC12-ND6 cells [5] = experiment: Mitochondrial mass under chloramphenicol (mito-GFP live-cell confocal microscopy); assay type: cell-based; conditions: chloramphenicol-treated
From the text: as §1, §2

PC12-ND6 cells [6] = conditions: dbcAMP alone, PC12 cell system; cited from earlier work
MELAS fibroblasts [7] = experiment: Morphometric analysis of mitochondrial connectivity (Image J); assay type: cell-based, human; conditions: Image J analysis of MTG-labeled fibroblasts
Protocol: FIG. 18 is a graph showing that butyrate and its derivatives rescue the mitochondrial dynamics and connectivity in MELAS fibroblasts.
(§3) Butyrates rescue the mitochondrial mass, morphology, networking, and membrane potential in MELAS fibroblasts. Skin fibroblasts from two MELAS patients and from a healthy subject as a control were used. Dose-dependent analyses of butyrates was performed to determine their best concentrations for eliciting an optimal mitochondrial response without cellular toxicity. Healthy and MELAS fibroblasts were treated with PBS, NaBt (2.5 mM), TBN (1.5 mM), or AN9 (300 μM) for three days before labeling with the MTG dye for live cell confocal analysis.

[8] = tested on: healthy and MELAS fibroblasts; experiment: Dose-dependent studies for optimal safe concentrations; assay type: cell-based, human; conditions: three days of treatment
From the text: Experimental approaches. Five distinct molecular tools were used to investigate mitochondrial biogenesis: 1) the mitochondrial-specific dyes, MitoTracker® Green (MTG) and MitoTracker® Red (MTR); 2) the mito-GFP or mito-dsRed vector to fluorescently label mitochondria; 3) antibodies against mtDNA, COXVα, or SOD2; 4) the fluorescent PicoGreen® dye labeling mtDNA; and 5) quantitative PCR to determine mtDNA copy number.
as §3, with “networking, membrane potential,” for “networking,”, “cellular ATP levels” for “membrane potential”, “butyrates” for “butyrates was performed”, “toxicity was performed.” for “toxicity.”

MELAS fibroblasts [9] = experiment: Mitochondrial mass, morphology and networking (MTG live cell confocal analysis); assay type: cell-based, human; conditions: three-day exposure; NaBt 2.5 mM, TBN 1.5 mM, AN9 300 μM
From the text: FIG. 17A-17C are images from microscopy and graphs showing that butyrates rescue the mitochondrial phenotype in MELAS fibroblasts. (A) Confocal analysis of healthy and MELAS fibroblasts treated as indicated and labeled with the MTG dye; scale bar=10 (B) Analysis of the mitochondrial mass; n=3 (60 cells per experiment; ^‡p<0.05, unpaired T-test *p<0.05, paired T-test). (C) Analysis of Δψm (^‡p<0.05, unpaired T-test; *p<0.05, paired T-test).
as §3, with “networking, membrane potential,” for “networking,”, “cellular ATP levels” for “membrane potential”, “butyrates” for “butyrates was performed”, “toxicity was performed.” for “toxicity.”
as §3

[10] = cited from earlier work; for toxicity or side effects on oral administration: TBN 1.5 mM, AN9 300 μM concentrations
[11] = cited from earlier work
[12] = human, in vivo; cited from earlier work
PC12-ND6 cells [13] = conditions: TSA 0.66 μM, control HDAC inhibitor; cited from earlier work

O=C(CCCCCCC(=O)Nc1ccccc1)NO [vorinostat]
apoptosis (MELAS fibroblasts [1]): induce apoptosis

O=C(N[C@H](CO)[C@H](O)c1ccc([N+](=O)[O-])cc1)C(Cl)Cl [chloramphenicol]
MT-COI expression (MT-COI): abolished most of MT-COI expression | SDH-A expression levels (SDH-A): none of the chloramphenicol concentrations altered | percent of neurons at stage 3 ([2]; chloramphenicol 15 μM): did not alter the percent of neurons at stage 3 | decreased transition to stage 3 ([2]; chloramphenicol 30 μM): 27% | decreased transition to stage 3 ([2]; chloramphenicol 60 μM): 54% | cell death (PC12-ND6 cells [3]): negligible cell death | reduction in total neurite length (PC12-ND6 cells [4]): 43% | mitochondrial mass (PC12-ND6 cells [5]): concentration-dependent decrease of mitochondrial mass

CCCC(=O)Nc1ncnc2c1ncn2[C@@H]1O[C@@H]2COP(=O)(O)O[C@H]2[C@H]1OC(=O)CCC [dbcAMP]
neurite length (PC12-ND6 cells [6]): 15-20 μm

CCCC(=O)OCOC(=O)C(C)(C)C [AN9, pivaloyloxymethyl butyrate]
connectivity among mitochondria (MELAS fibroblasts [7]): rescue the connectivity among mitochondria | optimal safe concentration for eliciting maximal mitochondrial biogenesis without cellular toxicity [8]: 300 µM | mitochondrial mass, morphology, and networking (MELAS fibroblasts [9]): restored normal mitochondrial mass, morphology, and networking | toxicity or side effects on oral administration [10]: without toxicity or side effects | toxicity ([10]; in vivo): low toxicity | oral pharmacological concentrations relative to NaBt ([10]; orally administered): 140 times lower than NaBt | cell membrane permeability [11]: increased cell membrane permeability

CCCC(CCC)C(=O)O [Valproic acid]
effect on seizures [12]: propensity to worsen seizures

CC(/C=C/C(=O)NO)=C\[C@@H](C)C(=O)c1ccc(N(C)C)cc1 [trichostatin A]
cell death (PC12-ND6 cells [13]): mild cell death | apoptosis (MELAS fibroblasts [1]): induce apoptosis

CCCC(=O)OCC(COC(=O)CCC)OC(=O)CCC [TBN, tributyrin]
connectivity among mitochondria (MELAS fibroblasts [7]): rescue the connectivity among mitochondria | optimal safe concentration for eliciting maximal mitochondrial biogenesis without cellular toxicity [8]: 1500 µM | mitochondrial mass, morphology, and networking (MELAS fibroblasts [9]): restored normal mitochondrial mass, morphology, and networking | toxicity or side effects on oral administration [10]: without toxicity or side effects | concentration pharmacologically attainable via oral administration without toxicity or side effects ([10]; oral): up to 2 mM
